From ChEMBL document CHEMBL1909046, “DrugMatrix in vitro pharmacology data”

Tests used:
[1] = DRUGMATRIX: GABAA, Muscimol, Central radioligand binding (ligand: [3H] Muscimol); type: cell membranes, Rattus norvegicus, Wistar, Brain, Membrane; settings: Not Active = under 50% inhibition at 10 µM
Cytochrome P450 2C9 = Cytochrome P450 2C9 (Homo sapiens, UniProt P11712); settings: bti-tn-5b1-4; note: in other assays of this panel Not Active means under 50% inhibition at 10 µM
[2] = molecular target: T1, Amine oxidase [flavin-containing] A (Homo sapiens, UniProt P21397); experiment: DRUGMATRIX: Monoamine Oxidase MAO-A enzyme inhibition (substrate: Kynuramine); parameters: species or system BTI-TN-5B1-4; settings: bti-tn-5b1-4; Not Active = under 50% inhibition at 10 µM
T1 sequence (P21397 whole entry): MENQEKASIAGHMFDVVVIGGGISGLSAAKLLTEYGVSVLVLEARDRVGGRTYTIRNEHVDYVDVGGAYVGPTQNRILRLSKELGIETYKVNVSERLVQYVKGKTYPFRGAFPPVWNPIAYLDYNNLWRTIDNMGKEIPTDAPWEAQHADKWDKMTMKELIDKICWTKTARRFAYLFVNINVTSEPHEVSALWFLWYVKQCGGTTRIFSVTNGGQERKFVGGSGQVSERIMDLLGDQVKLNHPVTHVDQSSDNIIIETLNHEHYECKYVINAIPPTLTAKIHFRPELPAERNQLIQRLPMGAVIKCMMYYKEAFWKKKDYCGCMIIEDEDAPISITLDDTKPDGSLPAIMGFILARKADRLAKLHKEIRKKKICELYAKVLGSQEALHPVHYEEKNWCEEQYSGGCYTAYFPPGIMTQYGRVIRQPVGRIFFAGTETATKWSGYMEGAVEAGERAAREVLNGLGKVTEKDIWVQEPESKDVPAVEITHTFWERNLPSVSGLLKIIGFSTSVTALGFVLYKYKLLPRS

[3] = molecular target: Protein phosphatase 3 catalytic subunit alpha (Homo sapiens, UniProt Q08209); parameters: species or system Escherichia coli;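 note: inhibition of calcineurin (PP2B) enzyme activity, measured with DiFMUP as the substrate; in other assays of this panel Not Active means under 50% inhibition at 10 µM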
[4] = molecular target: Beta-2 adrenergic receptor (Homo sapiens, UniProt P07550); experiment: DRUGMATRIX: Adrenergic beta2 radioligand binding (ligand: [3H] CGP-12177); type: cell membranes, Membrane; settings: cho; Not Active = under 50% inhibition at 10 µM
[5] = molecular target: T2, Neuropeptide Y receptor type 1 (Homo sapiens, UniProt P25929); type: cell membranes, Membrane; settings: sk-n-mc; note: in other assays of this panel Not Active means under 50% inhibition at 10 µM
T2 sequence (P25929 whole entry): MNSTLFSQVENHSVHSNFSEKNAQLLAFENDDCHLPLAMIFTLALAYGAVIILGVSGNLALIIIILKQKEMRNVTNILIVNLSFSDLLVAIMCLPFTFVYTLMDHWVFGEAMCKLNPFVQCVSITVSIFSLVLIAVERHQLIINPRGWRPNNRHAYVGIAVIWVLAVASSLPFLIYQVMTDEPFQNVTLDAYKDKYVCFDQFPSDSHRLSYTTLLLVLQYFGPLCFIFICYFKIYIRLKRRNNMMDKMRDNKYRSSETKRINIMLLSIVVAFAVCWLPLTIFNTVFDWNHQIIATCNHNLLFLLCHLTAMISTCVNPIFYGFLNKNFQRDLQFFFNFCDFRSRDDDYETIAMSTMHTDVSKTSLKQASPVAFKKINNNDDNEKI

Progesterone receptor = molecular target: T3, Progesterone receptor (Bos taurus, UniProt Q690N0); experiment: DRUGMATRIX: Progesterone radioligand binding (ligand: [3H] R-5020); type: tissue-based, Uterus; settings: Not Active = under 50% inhibition at 10 µM
T3 sequence (Q690N0 whole entry): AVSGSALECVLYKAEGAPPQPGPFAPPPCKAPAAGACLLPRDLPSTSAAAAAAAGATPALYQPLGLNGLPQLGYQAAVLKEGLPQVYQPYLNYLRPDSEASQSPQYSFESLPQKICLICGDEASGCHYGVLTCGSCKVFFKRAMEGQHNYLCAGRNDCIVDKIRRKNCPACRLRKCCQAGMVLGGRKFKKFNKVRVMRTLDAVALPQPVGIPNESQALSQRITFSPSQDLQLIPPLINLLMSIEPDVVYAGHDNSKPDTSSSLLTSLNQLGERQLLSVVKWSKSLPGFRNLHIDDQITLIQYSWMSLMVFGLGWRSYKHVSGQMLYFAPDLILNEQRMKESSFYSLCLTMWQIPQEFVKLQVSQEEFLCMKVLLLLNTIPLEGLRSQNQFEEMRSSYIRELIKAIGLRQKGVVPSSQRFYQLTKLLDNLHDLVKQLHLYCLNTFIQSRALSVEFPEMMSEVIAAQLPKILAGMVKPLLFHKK

[6] = DRUGMATRIX: Tumor Necrosis Factor (TNF), Non-Selective radioligand binding (ligand: [125I] TNF-alpha); type: cell membranes, Membrane; settings: u-937; Not Active = under 50% inhibition at 10 µM
Melanocortin receptor 5 = Melanocortin receptor 5 (Homo sapiens, UniProt P33032); type: cell membranes, HEK293, Membrane; settings: hek293; note: in other assays of this panel Not Active means under 50% inhibition at 10 µM
[7] = molecular target: T4, Cholecystokinin receptor type A (Homo sapiens, UniProt P32238); type: cell membranes, Membrane; settings: 1321-n1; note: in other assays of this panel Not Active means under 50% inhibition at 10 µM
T4 sequence (P32238 whole entry): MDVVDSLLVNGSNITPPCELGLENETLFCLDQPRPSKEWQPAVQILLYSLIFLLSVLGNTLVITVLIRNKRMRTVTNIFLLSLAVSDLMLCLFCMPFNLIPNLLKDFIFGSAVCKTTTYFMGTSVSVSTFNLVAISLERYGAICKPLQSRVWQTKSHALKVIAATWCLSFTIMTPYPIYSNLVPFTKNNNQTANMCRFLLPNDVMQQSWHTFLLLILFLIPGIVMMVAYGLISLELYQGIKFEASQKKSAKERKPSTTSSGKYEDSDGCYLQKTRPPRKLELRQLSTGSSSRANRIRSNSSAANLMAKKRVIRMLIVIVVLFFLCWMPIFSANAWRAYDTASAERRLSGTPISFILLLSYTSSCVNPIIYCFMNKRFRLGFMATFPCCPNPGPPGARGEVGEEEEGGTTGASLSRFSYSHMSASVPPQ

[8] = molecular target: T5, Vasoactive intestinal polypeptide receptor 1 (Homo sapiens, UniProt P32241); type: cell membranes, Membrane; settings: ht-29; note: in other assays of this panel Not Active means under 50% inhibition at 10 µM
T5 sequence (P32241 whole entry): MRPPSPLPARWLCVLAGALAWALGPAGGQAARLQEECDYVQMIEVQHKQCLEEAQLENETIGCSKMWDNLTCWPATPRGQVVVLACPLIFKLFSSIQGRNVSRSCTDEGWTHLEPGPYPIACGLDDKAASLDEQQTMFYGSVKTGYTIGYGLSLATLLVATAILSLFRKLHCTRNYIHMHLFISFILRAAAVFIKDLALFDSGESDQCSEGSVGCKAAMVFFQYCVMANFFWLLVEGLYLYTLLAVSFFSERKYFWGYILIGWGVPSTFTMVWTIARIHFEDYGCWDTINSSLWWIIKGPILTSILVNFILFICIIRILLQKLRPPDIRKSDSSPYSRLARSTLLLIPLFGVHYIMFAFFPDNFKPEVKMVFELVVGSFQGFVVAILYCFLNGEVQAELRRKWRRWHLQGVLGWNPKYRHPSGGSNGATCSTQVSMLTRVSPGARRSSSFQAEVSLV

Sequence of Cytochrome P450 2C9 (P11712 whole entry): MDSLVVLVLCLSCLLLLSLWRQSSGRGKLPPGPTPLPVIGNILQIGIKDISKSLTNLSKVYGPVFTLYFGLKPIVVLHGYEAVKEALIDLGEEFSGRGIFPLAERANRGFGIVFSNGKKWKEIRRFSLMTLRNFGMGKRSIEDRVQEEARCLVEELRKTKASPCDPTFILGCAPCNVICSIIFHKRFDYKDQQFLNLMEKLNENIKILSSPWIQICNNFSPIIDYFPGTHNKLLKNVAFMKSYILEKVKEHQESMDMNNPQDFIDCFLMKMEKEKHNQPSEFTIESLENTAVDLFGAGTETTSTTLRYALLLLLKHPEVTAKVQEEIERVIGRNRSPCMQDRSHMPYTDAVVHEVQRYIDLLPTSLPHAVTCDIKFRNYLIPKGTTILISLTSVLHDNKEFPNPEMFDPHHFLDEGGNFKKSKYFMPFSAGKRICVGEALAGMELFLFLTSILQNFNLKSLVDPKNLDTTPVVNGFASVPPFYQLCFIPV
Sequence of Melanocortin receptor 5 (P33032 whole entry): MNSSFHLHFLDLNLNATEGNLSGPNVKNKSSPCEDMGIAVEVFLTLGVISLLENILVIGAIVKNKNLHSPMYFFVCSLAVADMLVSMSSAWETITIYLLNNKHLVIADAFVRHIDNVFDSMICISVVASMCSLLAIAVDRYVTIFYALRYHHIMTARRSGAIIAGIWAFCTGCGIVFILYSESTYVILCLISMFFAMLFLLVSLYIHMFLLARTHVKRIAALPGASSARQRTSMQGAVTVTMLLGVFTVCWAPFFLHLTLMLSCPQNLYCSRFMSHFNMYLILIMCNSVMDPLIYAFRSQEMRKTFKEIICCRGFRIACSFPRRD

CCCSc1ccc2nc(NC(=O)OC)[nH]c2c1 [ALBENDAZOLE]
Not Active: IC50 [1] | Ki [1] | IC50 (Cytochrome P450 2C9) | Ki (Cytochrome P450 2C9) | IC50 [2] | IC50 [3] | IC50 [4] | IC50 [5] | IC50 (Progesterone receptor) | IC50 [6] | Ki [6] | IC50 (Melanocortin receptor 5) | IC50 [7] | IC50 [8]

OXALIPLATIN
Not Active: IC50 [1] | Ki [1] | IC50 (Cytochrome P450 2C9) | Ki (Cytochrome P450 2C9) | IC50 [2] | Ki [2] | IC50 [3] | Ki [3] | IC50 [4] | Ki [4] | IC50 [5] | Ki [5] | IC50 (Progesterone receptor) | Ki (Progesterone receptor) | IC50 [6] | Ki [6] | IC50 (Melanocortin receptor 5) | Ki (Melanocortin receptor 5) | IC50 [7] | Ki [7] | IC50 [8] | Ki [8]

Cc1[nH]cnc1CN1CCc2c(c3ccccc3n2C)C1=O [ALOSETRON]
Not Active: IC50 [1] | Ki [1] | IC50 (Cytochrome P450 2C9) | Ki (Cytochrome P450 2C9) | IC50 [2] | IC50 [3] | IC50 [4] | IC50 [5] | IC50 (Progesterone receptor) | IC50 [6] | Ki [6] | IC50 (Melanocortin receptor 5) | IC50 [7] | IC50 [8]

CCCc1cc(=O)[nH]c(=S)[nH]1 [PROPYLTHIOURACIL]
Not Active: IC50 [1] | Ki [1] | IC50 (Cytochrome P450 2C9) | Ki (Cytochrome P450 2C9) | IC50 [2] | IC50 [3] | IC50 [4] | IC50 [5] | IC50 (Progesterone receptor) | IC50 [6] | Ki [6] | IC50 (Melanocortin receptor 5) | IC50 [7] | IC50 [8]

CARBOPLATIN
Not Active: IC50 [1] | Ki [1] | IC50 (Cytochrome P450 2C9) | Ki (Cytochrome P450 2C9) | IC50 [2] | Ki [2] | IC50 [3] | Ki [3] | IC50 [4] | Ki [4] | IC50 [5] | Ki [5] | IC50 (Progesterone receptor) | Ki (Progesterone receptor) | IC50 [6] | Ki [6] | IC50 (Melanocortin receptor 5) | Ki (Melanocortin receptor 5) | IC50 [7] | Ki [7] | IC50 [8] | Ki [8]

Nc1nc2c(ncn2COC(CO)CO)c(=O)[nH]1 [GANCICLOVIR]
Not Active: IC50 [1] | Ki [1] | IC50 (Cytochrome P450 2C9) | Ki (Cytochrome P450 2C9) | IC50 [2] | IC50 [3] | IC50 [4] | IC50 [5] | IC50 (Progesterone receptor) | IC50 [6] | Ki [6] | IC50 (Melanocortin receptor 5) | IC50 [7] | IC50 [8]

CC1(C)S[C@@H]2[C@H](NC(=O)[C@H](NC(=O)N3CCNC3=O)c3ccccc3)C(=O)N2[C@H]1C(=O)O [AZLOCILLIN]
Not Active: IC50 [1] | Ki [1] | IC50 (Cytochrome P450 2C9) | Ki (Cytochrome P450 2C9) | IC50 [2] | IC50 [3] | IC50 [4] | IC50 [5] | IC50 (Progesterone receptor) | IC50 [6] | Ki [6] | IC50 (Melanocortin receptor 5) | IC50 [7] | IC50 [8]

COc1ccc2cc(CC(=O)O)ccc2c1
Not Active: IC50 [1] | Ki [1] | IC50 (Cytochrome P450 2C9) | Ki (Cytochrome P450 2C9) | IC50 [2] | IC50 [3] | IC50 [4] | IC50 [5] | IC50 (Progesterone receptor) | IC50 [6] | Ki [6] | IC50 (Melanocortin receptor 5) | IC50 [7] | IC50 [8]

CCOC(=O)OC(C)OC1=C(C(=O)Nc2ccccn2)N(C)S(=O)(=O)c2ccccc21 (configuration not stated) [AMPIROXICAM]
Not Active: IC50 [1] | Ki [1] | IC50 (Cytochrome P450 2C9) | Ki (Cytochrome P450 2C9) | IC50 [2] | IC50 [3] | IC50 [4] | IC50 [5] | IC50 (Progesterone receptor) | IC50 [6] | Ki [6] | IC50 (Melanocortin receptor 5) | IC50 [7] | IC50 [8]
